Source: US10414778B2, “Methods for treatment of resistant cancer” (New Mexico Tech University Research Park Corporation, priority 2016, dated 2019)
Read-outs that look alike come from different tables or passages of the source.

Experiments:
HeLa cells = experiment: MTT in vitro growth inhibition assay, HeLa; assay type: cell-based, human; details: Homo sapiens, HeLa, two independent experiments
Description: (§1) Human cancer cell lines were obtained from the American Type Culture Collection (ATCC, Manassas, Va., USA), the European Collection of Cell Culture (ECACC, Salisbury, UK), and the Deutsche Sammlung von Mikroorganismen und Zellkulturen (DSMZ, Braunschweig, Germany). Human cervical adenocarcinoma HeLa cells were cultured in DMEM supplemented with 10% fetal bovine serum (FBS). Human mammary carcinoma MCF-7 cells were cultured in RPMI supplemented with 10% FBS. The U87 cells (ATCC HTB-14) were cultured in DMEM culture medium, while the A549 cells (DSMZ ACC107) were cultured in RPMI culture medium supplemented with 10% heat-inactivated FBS. The GBM Hs683 (ATCC HTB-138) and the T98G (ATCC CRL-1690) cell lines were cultivated in DMEM supplemented with 10% FBS. The GBM U251 cells (ECACC code 09063001) were cultured in 10% MEM. The human uterine sarcoma MES-SA and MES-SA/Dx5 cells were cultured in RPMI-1640 medium supplemented with 10% FBS with MES SA/Dx5 maintained in the presence of 500 nM Doxorubicin (Sigma™). The U373 glioblastoma cells (ECACC 08061901) were cultured in RPMI culture medium supplemented with 10% heat-inactivated FBS.
Spirodienones 4a-m were subjected to in vitro growth inhibition 3-(4,5-dimethylthiazol-2-yl)-2,5-diphenyltetrazolium bromide (MTT) assays against two cell lines, human HeLa cervical and MCF-7 breast adenocarcinomas.
(§2) All compounds were dissolved in DMSO at a concentration of either 100 mM or 50 mM prior to cell treatment. The cells were trypsinized and seeded at various cell concentrations depending on the cell type. The cells were grown for 24 h to 72 h, treated with compounds at concentrations ranging from 0.001 to 100 μM, and incubated for 48, 72, or 96 h in 100 or 200 μL media depending on the cell line used. Cells treated with 0.1% DMSO were used as a negative control, and cells treated with 1 μM phenyl arsine oxide (PAO) were used as a positive control.
To determine the activities of the compounds of the invention toward cancer cells, cell lines treated with different compounds were subjected to an in vitro MTT growth assay using human cervical cancer (HeLa) and human adenocarcinoma (MCF-7) cell lines. The MTT growth assay is a colorimetric assay that measures the metabolic activity of cells via reduction of 3-(4,5-dimethylthiazol-2-yl)-2,5-diphenyltetrazolium bromide (MTT). The reduction of MTT occurs in metabolically-active cells and is characterized by a purple color, which can be quantified via spectrophotometry. A higher absorbance reading indicates a metabolically-active cell, while a low absorbance reading indicates low metabolic activity due to, for example, inhibition of cellular proliferation or cell death.
The values in TABLE 4 are the mean and standard deviation calculated from two independent experiments, which were performed in 4 replicates.

H1993 cells [1] = experiment: MTT growth inhibition, H1993 NSCLC; assay type: cell-based; details: Homo sapiens
Description: as §2
(§3) Drug-resistant cell lines (i.e., glioma: Hs683, U373, U251, U87, T98G; lung cancer: A549, H2073; uterine carcinoma: MES-SA/Dx5) were complemented with drug-sensitive cell lines, H1993 lung cancer and MES-SA uterine cancer, which were used as controls. […] The GI50 values were calculated after 48-96 hours of treatment with the indicated compounds in replicate using the MTT growth assay.

H2073 cells = experiment: MTT growth inhibition, H2073 drug-resistant NSCLC; assay type: cell-based, human; details: for decrease in potency toward H2073 cells relative to H1993 cells: H2073 versus H1993; for GI50: Homo sapiens, NCI-H2073, MTT
Description: NSCLC cell lines H1993 and H2073 were obtained from the Hamon Center for Therapeutic Oncology Research at UT Southwestern Medical Center and cultured in RPMI-1640 medium (Mediatech, VA, USA) supplemented with 5% heat-inactivated FBS (Mediatech™), 100 units/mL penicillin and 0.1 mg/mL streptomycin (Sigma™). All cell lines were cultured in T25 flasks, maintained, and grown at 37° C., 95% humidity, 5% CO2.
as §2
(§4) Spirodienone 4l was evaluated against patient-derived NSCLC cell line H1993 and its drug-resistant variant, H2073. The patient-derived NSCLC cell line […] was obtained from a regrown tumor at a primary site after a patient relapsed several months later.
Due to their high potencies, compounds 5l and 5g were used to determine the effects of the compounds on drug-resistant tumor cells. Drug-resistant cell lines (i.e., glioma: Hs683, U373, U251, U87, T98G; lung cancer: A549, H2073; uterine carcinoma: MES-SA/Dx5) were complemented with drug-sensitive cell lines, H1993 lung cancer and MES-SA uterine cancer, which were used as controls. Bulbispermine and paclitaxel were also used as controls. The GI50 values were calculated after 48-96 hours of treatment with the indicated compounds in replicate using the MTT growth assay.
Compound 5l was further tested to determine the effect of compounds of the invention on drug-resistant tumor cells. A patient-derived non-small cell lung cancer (NSCLC) line, H1993, and the drug-resistant variant of H1993, H2073, were used for testing. The H1993 cell line was obtained from a lymph node metastasis isolated from the patient prior to chemotherapy. The H2073 cell line was derived from a regrown tumor at the primary site after the patient had relapsed several months after administration of the chemotherapy regimen.

MES-SA cells = experiment: MTT growth inhibition, MES-SA uterine sarcoma; assay type: cell-based; details: Homo sapiens, MES-SA, MTT
Description: as §1
as §2, with “control. […]” for “control.”
as §3

H1993 cells [2] = experiment: Combination treatment with paclitaxel, CellTiter-Glo viability, Bliss Independence; assay type: cell-based, human; details: 96 h, FIG. 2
Description: as §4
Paclitaxel (Teva™) was dissolved in polyethoxylated castor oil. Compound 4l was dissolved in DMSO. The compound was diluted to different concentrations in medium. Appropriate numbers of cells (4×10^3 cells per well for H1993, 7×10^3 cells per well for H2073) were seeded into 96-well plates. […] After 96 h, viability of cells was assessed using the CellTiter-Glo® Luminescent Cell Viability Assay (Promega™), according to the manufacturer's instructions. Predicted additivity was calculated based on Bliss Independence, as defined by Exy=Ex+Ey−ExEy, where Exy is the additive effect of drugs x and y as predicted by the individual effects Ex and Ey.
FIG. 2 and FIG. 3 illustrate the synergism against H1993 cells.

GI50 (HeLa cells; Table 4, 48-hour treatment, mean and standard deviation, read-out: HeLa Cell Viability GI50) [µM] | GI50 (H1993 cells [1]; NCI-H1993, Table 5, 48-96 hours of treatment, read-out: GI50, Lung Cancer H1993) [µM] | GI50 (H2073 cells; Table 5, 48-96 hours of treatment, read-out: GI50, Lung Cancer H2073) [µM] | GI50 (MES-SA cells; Table 5, 48-96 hours of treatment, read-out: GI50, Sarcoma MES-SA) [µM] | GI50 (HeLa cells; 48 h treatment, ± SD, read-out: cell viability GI50, HeLa) [µM] | GI50 (H1993 cells [1]; NCI-H1993, Table 3, 48-96 h treatment, read-out: GI50 in vitro values, lung cancer H1993) [µM] | GI50 (H2073 cells; Table 3, 48-96 h treatment, read-out: GI50 in vitro values, lung cancer H2073) [µM] | GI50 (MES-SA cells; Table 3, 48-96 h treatment, read-out: GI50 in vitro values, uterine sarcoma MES-SA) [µM] | Compound | decrease in potency toward H2073 cells relative to H1993 cells (H2073 cells) | synergism with paclitaxel in antiproliferative action (H1993 cells [2])
6.2 ± 1.13 | 3 | 11 | 2 |  |  |  |  | O=C1C=C[C@]23CC[N@](Cc4c2sc2ccccc42)[C@H]3C1 [Compound 5l] | less drastic | 
 |  |  |  | 10 | 12 | 50 | 5 | O=C1C=CC2(C=C1)CCN(C(=O)C(F)(F)F)Cc1c2sc2ccccc12 [Compound 4l] | significantly less pronounced than that observed with paclitaxel | synergize with paclitaxel
